Reference: US12448372B2, “Class of triaromatic compounds targeting bifunctional phosphorylation site of STAT3 and applications thereof” (SHANGHAI YUYAO BIOTECH LTD., priority 2019, dated 2025)

Tests used:
Huh7 = experiment: Cell proliferation by MTS method, Huh7; assay type: cell-based; details: Homo sapiens, Huh-7; Table 1, Huh7; read-out: Tumour cell proliferative activity/IC50(nM) Liver Cancer Huh7
From the text: (§1) (2) Detection of Cell Proliferation by MTS Method
(§2) The MTS assay is a method for indirectly determining the number of living cells via colourimetric method. MTS is a newly synthesised tetrazole compound that reflects cell viability, which can be reduced by succinate dehydrogenase in the mitochondria of living cells to an orange-coloured formazan with an absorbance of the reduced product measured at 490 nm being in proportion to the number of living cells, thus reflecting the cell viability. This assay can be used to evaluate the effect of the compound on the proliferation of pancreatic cancer cells, thereby determining the inhibitory effect of the compound on the proliferation of pancreatic cancer cells and to calculate the IC^50. Each cells were inoculated uniformly into a 96-well plate at a density of 1-20×10^3 cells/well, 100 μL per well, and placed in a constant temperature incubator until the cells adhered to the wall. The control group was added with the corresponding medium and the experimental groups were given different concentrations of the compound prepared by the examples of the present invention, and the cells were taken out 24-96 h after administration for observing the cell state under a microscope. Under light-proof conditions, MTS was added and well mixed, the mixture was placed in a constant temperature incubator at 37° C., and the light absorption value were measured using an enzyme marker at 490 nm and the experiment was repeated for three times, IC50 was calculated with GraphPad5 Prism software.

STAT3 protein = STAT3 protein (Homo sapiens, UniProt P40763); experiment: Binding activity to STAT3 protein by microscale thermophoresis (MST); details: purified STAT3 recombinant protein
Chain of STAT3 protein (P40763 whole entry): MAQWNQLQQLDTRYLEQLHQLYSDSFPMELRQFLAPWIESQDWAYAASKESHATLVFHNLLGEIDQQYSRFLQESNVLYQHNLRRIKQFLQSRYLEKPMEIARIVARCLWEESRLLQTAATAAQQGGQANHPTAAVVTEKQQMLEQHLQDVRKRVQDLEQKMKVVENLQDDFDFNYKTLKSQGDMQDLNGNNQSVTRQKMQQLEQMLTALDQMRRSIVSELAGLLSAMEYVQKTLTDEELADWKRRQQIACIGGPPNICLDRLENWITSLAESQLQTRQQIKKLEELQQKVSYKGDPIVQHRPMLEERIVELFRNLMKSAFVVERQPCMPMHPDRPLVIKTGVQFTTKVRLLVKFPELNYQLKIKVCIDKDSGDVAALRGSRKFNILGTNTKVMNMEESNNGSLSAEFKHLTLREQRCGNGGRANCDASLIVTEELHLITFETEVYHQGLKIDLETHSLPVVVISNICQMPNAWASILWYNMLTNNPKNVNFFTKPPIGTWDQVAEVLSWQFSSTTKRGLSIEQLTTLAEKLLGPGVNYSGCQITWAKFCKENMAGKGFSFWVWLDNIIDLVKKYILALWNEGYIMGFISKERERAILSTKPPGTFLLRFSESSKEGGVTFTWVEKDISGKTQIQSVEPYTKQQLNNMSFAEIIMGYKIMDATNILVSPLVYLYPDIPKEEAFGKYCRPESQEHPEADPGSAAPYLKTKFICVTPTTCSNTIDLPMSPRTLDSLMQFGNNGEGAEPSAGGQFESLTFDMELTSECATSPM
From the text: (1) Determination of Binding Activities of Compounds to STAT3 Protein by Microscale Thermophoresis (MST) Method
The microscale thermophoresis (MST) technique is a simple, rapid, and accurate method for quantifying biomolecular interactions. It can measure the movement of molecules in a microscopic temperature gradient field, as well as detect changes of molecular hydration shell, charge and size. When the Nanotemper microscale thermophoresis instrument locally heated by a infrared laser, molecules will move in a directional manner, then the molecular distribution ratio in the temperature gradient field are analyzed by a fluorescence to detect whether a small molecule compound binds to a target protein. The experimental operation is as follows: firstly, compounds to be tested are diluted in a gradient using MST test buffer, total 16 concentrations being configured; subsequently, the purified STAT3 recombinant protein is labeled using the HIS tag labeling kit, and the final concentration of the labeled protein is 100-200 nM; the labeled STAT3 proteins are well mixed with the diluted compounds and incubated and protected from light for 30 minutes; finally the samples were loaded by capillary tube and detected on the instrument. The binding constants (K^D) of small molecules to STAT3 protein were analyzed by Mo. analysis software.

Capan-2 = experiment: Cell proliferation by MTS method, Capan-2; assay type: cell-based; details: Homo sapiens; Table 1, Capan-2; read-out: Tumour cell proliferative activity/IC50(nM) Pancreatic Cancer Capan-2
From the text: as §1, §2

HCC827 = experiment: Cell proliferation by MTS method, HCC827; assay type: cell-based; details: Homo sapiens; Table 1, HCC827; read-out: Tumour cell proliferative activity/IC50(nM) Lung Cancer HCC827
From the text: as §1, §2

MKN45 = experiment: Cell proliferation by MTS method, MKN45; assay type: cell-based; details: Homo sapiens, MKN-45; Table 1, MKN45; read-out: Tumour cell proliferative activity/IC50(nM) gastric Cancer MKN45
From the text: as §1, §2

| SMILES | IC50 (Huh7) | Kd (STAT3 protein) | IC50 (HCC827) | IC50 (MKN45) | IC50 (Capan-2) |
| --- | --- | --- | --- | --- | --- |
| CCCn1c(C(=O)N2CCN(Cc3ccc(OCC(F)(F)F)cc3)CC2)cc2ccc(Oc3cnc(-c4nc(-c5ccc(C(F)(F)F)cc5)no4)cn3)cc21 [Example 16, (1-propyl-6-((5-(3-(4-(trifluoromethyl)phenyl)-1,2,4-oxadiazol-5-yl)pyrazin-2-yl)oxy)-1H-indol-2-yl)(4-(4-(2,2,2-trifluoromethoxy)benzyl)piperazin-1-yl)methanone] | < 100 nM | < 100 nM | < 100 nM | < 100 nM | < 100 nM |
| C=CCn1c(C(=O)N2CCN(Cc3ccc(OCC(F)(F)F)cc3)CC2)cc2ccc(Oc3cnc(-c4nc(-c5ccc(C(F)(F)F)cc5)no4)cn3)cc21 [Example 17, (1-allyl-6-((5-(3-(4-(trifluoromethyl)phenyl)-1,2,4-oxadiazol-5-yl)pyrazin-2-yl)oxy)-1H-indol-2-yl) (4-(4-(2,2,2-trifluoromethoxy)benzyl)piperazin-1-yl)methanone] | < 10 nM | < 10 nM | < 10 nM | < 10 nM | < 10 nM |
| COCCn1c(C(=O)N2CCN(Cc3ccc(OCC(F)(F)F)cc3)CC2)cc2ccc(Oc3cnc(-c4nc(-c5ccc(C(F)(F)F)cc5)no4)cn3)cc21 [Example 18, (1-(2-methoxyethyl)-6-((5-(3-(4-(trifluoromethyl)phenyl)-1,2,4-oxadiazol-5-yl)pyrazin-2-yl)oxy)-1H-indol-2-yl) (4-(4-(2,2,2-trifluoroethoxy)benzyl)piperazin-1-yl)methanone] | < 100 nM | < 100 nM | < 100 nM | < 100 nM | < 100 nM |
| CC(C)C(=O)n1c(C(=O)N2CCN(Cc3ccc(OCC(F)(F)F)cc3)CC2)cc2ccc(Oc3cnc(-c4nc(-c5ccc(C(F)(F)F)cc5)no4)cn3)cc21 [Example 19] | < 10 nM | < 10 nM | < 10 nM | < 10 nM | < 10 nM |
| COC(=O)Cn1c(C(=O)N2CCN(Cc3ccc(OCC(F)(F)F)cc3)CC2)cc2ccc(Oc3cnc(-c4nc(-c5ccc(C(F)(F)F)cc5)no4)cn3)cc21 [Example 20] | < 1000 nM | < 1000 nM | < 1000 nM | < 1000 nM | < 1000 nM |
| CCOC(=O)Cn1c(C(=O)N2CCN(Cc3ccc(OCC(F)(F)F)cc3)CC2)cc2ccc(Oc3cnc(-c4nc(-c5ccc(C(F)(F)F)cc5)no4)cn3)cc21 [Example 21] | < 1000 nM | < 100 nM | < 1000 nM | < 1000 nM | < 1000 nM |
| O=C(c1cc2ccc(Oc3cnc(-c4nc(-c5ccc(C(F)(F)F)cc5)no4)cn3)cc2n1Cc1ccccc1)N1CCN(Cc2ccc(OCC(F)(F)F)cc2)CC1 [Example 22] | < 1000 nM | < 100 nM | < 1000 nM | < 1000 nM | < 1000 nM |

Now from value to compound, other results behind:

| IC50 (Huh7) | Kd (STAT3 protein) | IC50 (HCC827) | IC50 (MKN45) | SMILES | IC50 (Capan-2) |
| --- | --- | --- | --- | --- | --- |
| < 1000 nM | < 100 nM | < 1000 nM | < 1000 nM | Cn1c(C(=O)N2CCN(Cc3ccccc3)CC2)cc2ccc(Oc3cnc(-c4nc(-c5ccc(C(F)(F)F)cc5)no4)cn3)cc21 [Example 23, (4-benzylpiperazin-1-yl)(1-methyl-6-((5-(3-(4-(trifluoromethyl)phenyl)-1,2,4-oxadiazol-5-yl)pyrazin-2-yl)oxy)-1H-indol-2-yl)methanone] | < 1000 nM |
| < 1000 nM | < 100 nM | < 1000 nM | < 1000 nM | Cc1cccc(CN2CCN(C(=O)c3cc4ccc(Oc5cnc(-c6nc(-c7ccc(C(F)(F)F)cc7)no6)cn5)cc4n3C)CC2)c1 [Example 24, (1-methyl-6-((5-(3-(4-(trifluoromethyl)phenyl)-1,2,4-oxadiazol-5-yl)pyrazin-2-yl)oxy)-1H-indol-2-yl) (4-(3-methylbenzyl)piperazin-1-yl)methanone] | < 1000 nM |
| < 100 nM | < 100 nM | < 100 nM | < 100 nM | Cc1ccc(CN2CCN(C(=O)c3cc4ccc(Oc5cnc(-c6nc(-c7ccc(C(F)(F)F)cc7)no6)cn5)cc4n3C)CC2)cc1 [Example 25, (1-methyl-6-((5-(3-(4-(trifluoromethyl)phenyl)-1,2,4-oxadiazol-5-yl)pyrazin-2-yl)oxy)-1H-indol-2-yl) (4-(4-methylbenzyl)piperazin-1-yl)methanone] | < 100 nM |
| < 1000 nM | < 1000 nM | < 1000 nM | < 1000 nM | Cn1c(C(=O)N2CCN(Cc3ccc(F)cc3)CC2)cc2ccc(Oc3cnc(-c4nc(-c5ccc(C(F)(F)F)cc5)no4)cn3)cc21 [Example 26, (4-(4-fluorobenzyl)piperazin-1-yl)(1-methyl-6-((5-(3-(4-(trifluoromethyl)phenyl)-1,2,4-oxadiazol-5-yl)pyrazin-2-yl)oxy)-1H-indol-2-yl)methanone] | < 1000 nM |
| < 100 nM | < 100 nM | < 100 nM | < 100 nM | Cn1c(C(=O)N2CCN(Cc3ccc(Cl)cc3)CC2)cc2ccc(Oc3cnc(-c4nc(-c5ccc(C(F)(F)F)cc5)no4)cn3)cc21 [Example 27, (4-(4-chlorobenzyl)piperazin-1-yl)(1-methyl-6-((5-(3-(4-(trifluoromethyl)phenyl)-1,2,4-oxadiazol-5-yl)pyrazin-2-yl)oxy)-1H-indol-2-yl)methanone] | < 100 nM |
| < 100 nM | < 100 nM | < 100 nM | < 100 nM | Cn1c(C(=O)N2CCN(Cc3ccc(Br)cc3)CC2)cc2ccc(Oc3cnc(-c4nc(-c5ccc(C(F)(F)F)cc5)no4)cn3)cc21 [Example 28, (4-(4-bromobenzyl)piperazin-1-yl)(1-methyl-6-((5-(3-(4-(trifluoromethyl)phenyl)-1,2,4-oxadiazol-5-yl)pyrazin-2-yl)oxy)-1H-indol-2-yl)methanone] | < 100 nM |
| < 1000 nM | < 1000 nM | < 1000 nM | < 1000 nM | Cn1c(C(=O)N2CCN(Cc3cccc(C(F)(F)F)c3)CC2)cc2ccc(Oc3cnc(-c4nc(-c5ccc(C(F)(F)F)cc5)no4)cn3)cc21 [Example 29, (1-methyl-6-((5-(3-(4-(trifluoromethyl)phenyl)-1,2,4-oxadiazol-5-yl)pyrazin-2-yl)oxy)-1H-indol-2-yl)(4-(3-(trifluoromethyl)benzyl)piperazin-1-yl)methanone] | < 1000 nM |
| < 1000 nM | < 1000 nM | < 1000 nM | < 1000 nM | Cn1c(C(=O)N2CCN(Cc3ccc(C(F)(F)F)cc3)CC2)cc2ccc(Oc3cnc(-c4nc(-c5ccc(C(F)(F)F)cc5)no4)cn3)cc21 [Example 30, (1-methyl-6-((5-(3-(4-(trifluoromethyl)phenyl)-1,2,4-oxadiazol-5-yl)pyrazin-2-yl)oxy)-1H-indol-2-yl)(4-(4-(trifluoromethyl)benzyl)piperazin-1-yl)methanone] | < 1000 nM |
| < 100 nM | < 100 nM | < 100 nM | < 100 nM | COc1ccc(CN2CCN(C(=O)c3cc4ccc(Oc5cnc(-c6nc(-c7ccc(C(F)(F)F)cc7)no6)cn5)cc4n3C)CC2)cc1 [Example 31, (4-(4-methoxybenzyl)piperazin-1-yl)(1-methyl-6-((5-(3-(4-(trifluoromethyl)phenyl)-1,2,4-oxadiazol-5-yl)pyrazin-2-yl)oxy)-1H-indol-2-yl)methanone] | < 100 nM |
| < 100 nM | < 100 nM | < 100 nM | < 100 nM | Cn1c(C(=O)N2CCN(Cc3cccc(OCC(F)(F)F)c3)CC2)cc2ccc(Oc3cnc(-c4nc(-c5ccc(C(F)(F)F)cc5)no4)cn3)cc21 [Example 32, (1-methyl-6-((5-(3-(4-(trifluoromethyl)phenyl)-1,2,4-oxadiazol-5-yl)pyrazin-2-yl)oxy)-1H-indol-2-yl)(4-(3-(2,2,2-trifluoroethoxy)benzyl)piperazin-1-yl)methanone] | < 100 nM |
